Measured values as given in patent US10294202B2, “Pyrrolidinones as herbicides” (FMC Corporation, priority 2013, dated 2019).

What was measured:
Experiment in all cases: Test E preemergence herbicide test
Parameters in all cases: key: 0 = no effect, 100 = complete control
[1] = system: crabgrass, large; type: in vivo, Digitaria sanguinalis
Excerpt: (§1) Seeds of plant species selected from corn (Zea mays), soybean (Glycine max), velvetleaf (Abutilon theophrasti), lambsquarters (Chenopodium album), wild poinsettia (Euphorbia heterophylla), pigweed, palmer (palmer pigweed, Amaranthus palmeri), waterhemp (common waterhemp, Amaranthus rudis), surinam grass (Brachiaria decumbens), crabgrass, large (large crabgrass, Digitaria sanguinalis), crabgrass, Brazil (Brazilian crabgrass, Digitaria horizontalis), panicum, fall (fall panicum, Panicum dichotomiflorum), foxtail, giant (giant foxtail, Setaria faberii), foxtail, green (green foxtail, Setaria viridis), goosegrass (Eleusine indica), johnsongrass (Sorghum halepense), ragweed (common ragweed, Ambrosia elatior), barnyardgrass (Echinochloa crus-galli), sandbur (southern sandbur, Cenchrus echinatus), arrowleaf […] rhombifolia), ryegrass, Italian (Italian ryegrass, Lolium multiflorum), dayflower, VA (Virginia dayflower, Commelina virginica), field bindweed (Convolvulus arvensis), morningglory (Ipomoea coccinea), nightshade (eastern black nightshade, Solanum ptycanthum), kochia (Kochia scoparia), nutsedge, yellow (yellow nutsedge, Cyperus esculentus), cocklebur (common cocklebur, Xanthium strumarium), smartweed (ladysthumb smartweed, Polygonum Persicaria) and beggarticks (hairy beggarticks, Bidens pilosa), were planted into a silt loam soil and treated preemergence with test chemicals formulated in a non-phytotoxic solvent mixture which included a surfactant. Treated plants and controls were maintained in a greenhouse for 21 days, after which time all species were compared to controls and visually evaluated. Plant response ratings, summarized in Table E, are based on a scale of 0 to 100 where 0 is no effect and 100 is complete control. A dash (-) response means no test result.

[2] = system: velvetleaf; type: in vivo, Abutilon theophrasti
Excerpt: as §1

[3] = system: pigweed, palmer; type: in vivo, Amaranthus palmeri
Excerpt: as §1

[4] = system: goosegrass; type: in vivo, Eleusine indica
Excerpt: as §1

O=C1NCC(c2ccc(Cl)c(Cl)c2)C1C(=O)Nc1ccccc1F (racemic) [Compound 14]
90: Plant response rating, Crabgrass, Large ([1]; 125 g ai/ha) | Plant response rating, Crabgrass, Large ([1]; 250 g ai/ha)
25: Plant response rating, Crabgrass, Large ([1]; 62 g ai/ha)
0: Plant response rating, Crabgrass, Large ([1]; 16 g ai/ha) | Plant response rating, Velvetleaf ([2]; 16 g ai/ha) | Plant response rating, Velvetleaf ([2]; 31 g ai/ha) | Plant response rating, Velvetleaf ([2]; 62 g ai/ha) | Plant response rating, Velvetleaf ([2]; 125 g ai/ha) | Plant response rating, Velvetleaf ([2]; 250 g ai/ha) | Plant response rating, Pigweed, Palmer ([3]; 16 g ai/ha) | Plant response rating, Pigweed, Palmer ([3]; 31 g ai/ha) | Plant response rating, Pigweed, Palmer ([3]; 62 g ai/ha) | Plant response rating, Pigweed, Palmer ([3]; 125 g ai/ha) | Plant response rating, Pigweed, Palmer ([3]; 250 g ai/ha) | Plant response rating, Goosegrass ([4]; 16 g ai/ha) | Plant response rating, Goosegrass ([4]; 31 g ai/ha) | Plant response rating, Goosegrass ([4]; 62 g ai/ha) | Plant response rating, Goosegrass ([4]; 125 g ai/ha) | Plant response rating, Goosegrass ([4]; 250 g ai/ha)
